In patent publication US12678412B2, “Substituted tolans for the modulation of microbial colonization” (BioMendics, LLC, priority 2017, dated 2026):

Assays:
MRSA USA 400 = assay: Bacterial cell death, DAPI/propidium iodide staining; assay type: cell-based, Staphylococcus aureus; conditions: 24 h treatment; 0.002 mM to 0.0625 mM; FIG. 13
Description: In order to confirm that treatment with BM3103 induced MRSA USA 400 bacterial cell death, both untreated cells and cells treated with BM3103 were stained with a combination of DAPI (nuclear stain) and Propidium iodide (PI, Live dead stain). In a healthy cell, PI is not able to cross the cell membrane and produces no fluorescent signal. If the cell is dead or has a compromised cell membrane it will bind DNA and fluoresces between 535 nm excitation and 617 nm emission. MRSA USA 400 were plated in a well plate at 10^8 CFU/mL in combination with BM3103 treatment or no treatment. Plates were placed at 37° C. for 24 h. Bacteria cells were co-stained with DAPI and PI at 50 μg/mL and 500 μg/mL, respectively, for 15 min at room temperature. Wells were washed with warmed phosphate buffered saline (PBS) and maintained in PBS throughout the imaging acquisition process. Images were captured using the same exposure limits for each filter. […] Concentrations above 0.0625 mM gave a similar result.

[1] = system: Methicillin Resistant Staphylococcus aureus (MRSA USA 300); assay: Colony forming assay, spread plate, MRSA USA 300; assay type: cell-based; conditions: for Reduction of MRSA USA 300 counts: 24 h
Description: A fresh culture of pathogenic isolate was used in these examples. The bacterial strains used were Methicillin Resistant Staphylococcus aureus (MRSA USA 300), Pseudomonas aeruginosa ATCC 27312, and Candida albicans ATCC 64550.
FIG. 5 illustrates the spread plate method used in these examples. In sum, agar plates were made, bacteria were diluted to 10^6 or 10^8 CFU/mL, bacteria and drug were mixed together and then plated. Glass spreading beads were used because they give a better bacterial spread. Plates were incubated for 24 hrs then the colonies that formed were counted.
Proliferating cultures of Methicillin Resistant Staphylococcus aureus (MRSA, USA 300) were used in a colony forming assay. Freeze-dried bacteria culture of MRSA was recovered by swabbing a 3-cm diameter growth area and resuspending it to obtain a final inoculum suspension of approximately 10^8 CFU/mL. The concentration was confirmed using historical optical density measurements. The total compound BM3103 was suspended in a 70% v/v alcohol gel formulation (Formulation A) before the introduction of bacteria, with the vehicle consisting of solely the 70% v/v alcohol gel. MRSA at 10^8 CFU/mL was challenged with equal parts of a high, medium, and low dose of BM3103, vehicle formulation, positive control (Tobramycin, 600 μg/mL), or untreated control (phosphate buffered saline). The inoculum was plated on Tryptic Soy Broth plates at 37° C. for 24 h. Plates were photographed and counted. The treatment for each experiment was done in triplicate, and the experiment was repeated three times, for a total of 9 plates per group.
Colony counts for each treatment were tabulated and the Log of the colony forming units/mL (Log CFU/mL) was determined. The mean and standard deviation of the Log CFU/mL were calculated for each treatment. A one-way analysis of variance was performed at a 95% confidence interval.

[2] = system: Methicillin Resistant Staphylococcus aureus (MRSA, USA 400); assay: Colony forming assay, 24 h plate assay, MRSA USA 400; assay type: cell-based
Description: Proliferating cultures of Methicillin Resistant Staphylococcus aureus (MRSA, USA 400) were used in a colony forming assay. Frozen stock cultures of MRSA USA 400 were thawed and grown overnight in tryptic soy broth (TSB) with shaking at 37° C. The overnight culture (0.5-1.0 mL) was added to 100 mL TSB and grown at 37° C. with shaking and monitored for an optical density of 0.55-0.60 in order to obtain a final inoculum suspension of approximately 10^8 CFU/mL.
BM3103 was suspended into a 70% v/v alcohol gel formulation to acquire the desired % w/v tested within the example. Each concentration was vortexed thoroughly until dissolved. Initial tested concentrations of BM3103 were 1, 0.5, and 0.1% w/v. These concentrations and the alcohol gel vehicle were mixed with equal parts of the 10^8 CFU/mL inoculum to obtain a final concentration of 0.5, 0.25, and 0.05% (22 mM, 11 mM, and 2 mM) BM3103. Tobramycin (600 μg/mL) served as the positive control. Vehicle and BM3103 formulations contained matching final concentration of 35% v/v alcohol.
BM3103 was dissolved into Transcutol (diethylene glycol monoethyl ether) at 2.5% w/v and vortexed until dissolved. This concentration was then serial diluted to achieve the remaining concentrations tested. Before plating, 100 μL of the final inoculum (10^8 CFU/mL) was mixed with 20 μL TSB broth and 80 μL of BM3103 doses or vehicle. Tobramycin, 600 μg/mL, served as the positive control. The final plating concentrations for BM3103 were 1, 0.5, 0.25, and 0.1% w/v (44 mM, 22 mM, 11 mM, 4 mM) BM3103. Vehicle and BM3103 formulations contained matching final concentration of 40% v/v Transcutol.
The above listed formulations combined with the MRSA inoculum were plated onto TSB agar plates. The plates were grown at 37° C. for 24 h, imaged, and the bacteria colonies were counted. The experiment was done in triplicate at each concentration level described above. Colony counts for each treatment were tabulated and the Log of the colony forming units/mL (Log CFU/mL) were determined. The mean and the standard error of the mean were calculated for each treatment.

COc1ccc(C#Cc2ccc(O)cc2)cc1 [BM3103, 4-hydroxy-4′-methoxytolan]
PI staining (cell death) (MRSA USA 400): dose dependent increase in PI staining | Reduction in MRSA USA 300 counts compared to the positive control ([1]; all three doses (0.05, 0.25, 0.5% w/v) vs Tobramycin 600 μg/mL): significantly greater reduction | Reduction of MRSA USA 300 counts ([1]; high dose 0.5% w/v, 22 mM, alcohol gel): approximately 8 fold | Reduction of MRSA USA 300 counts ([1]; low dose 0.05% w/v, 2 mM, 70% v/v alcohol gel (Formulation A), compared to vehicle and untreated controls): over 6 fold | Reduction of MRSA USA 300 counts ([1]; medium dose 0.25% w/v, 11 mM, alcohol gel, compared to vehicle and untreated control): 7 fold | Reduction of MRSA USA 400 counts ([2]; 0.05% w/v, 2 mM, alcohol gel formulation, compared to the vehicle control, FIG. 9): 4 fold | Reduction of MRSA USA 400 counts ([2]; 0.1% BM3103, Transcutol formulation, FIG. 10): > 5 fold | Bacterial count of MRSA USA 400 ([2]; 0.25% BM3103, alcohol gel formulation, FIG. 9): no bacterial count | Bacterial count of MRSA USA 400 ([2]; 0.5% BM3103, alcohol gel formulation, FIG. 9): no bacterial count | Bacterial count of MRSA USA 400 ([2]; remaining concentrations tested (1, 0.5, 0.25% w/v), Transcutol formulation, FIG. 10): no bacterial count
